Converted amounts (≈) assume the structure as drawn.
Legend:
[1] = system: Mycobacterium tuberculosis H37Rv; test: In vivo action in mice infected with tuberculosis (Tb germ count in spleen); design: species or system white mice (CFI breed); details: once daily, 2 weeks (5 times per week); for In vivo action, index of reduction in Tb germs, Tb-mice, orally: 100 mg/kg orally; for In vivo action, index of reduction in Tb germs, Tb-mice, subcutaneously: 100 mg/kg subcutaneously
Experimental: (§1) The animal experiments were above all carried out with white mice (CFI breed, Winkelmann, Kirchborchen) infected with Mycobacterium tuberculosis H37Rv. After intravenous infection with 10^4 -10^5 germ units/mouse, an oral or subcutaneous treatment was carried out once daily for a period of 2 weeks (that is to say 5 times per week). At predetermined intervals of time (11th, 14th and 17th day after infection) mice from the treatment groups were killed, the spleens were removed and standardised smear preparations were produced from the homogenate; the tubercle germ content in these was evaluated by means of fluorescence microscopy. […] The values obtained are grouped together in 5 rating groups and give a germ count index; the indices denote the following:
(§2) Index 0 corresponds to a reduction in the germ count of
(§3) Index 1 corresponds to a reduction in the germ count of
(§4) Index 2 corresponds to a reduction in the germ count of
(§5) >40-70% = distinct action
(§6) Index 3 corresponds to a reduction in the germ count of
Index 4 corresponds to a reduction in the germ count of […]

[2] = system: Mycobacterium tuberculosis H37Rv; test: Minimum inhibitory concentration on Lowenstein-Jensen egg medium, normally sensitive test strain; format: cell-based; details: per ml of nutrient medium
[3] = system: Mycobacterium tuberculosis H37Rv; test: In vivo action in guinea pigs infected with tuberculosis (Tb germ count in lung); details: 30 mg/kg orally, once daily from 14th day, 3 weeks (5 times per week)
Experimental: as §1, §2, §3, §4, §5, §6
Index 4 corresponds to a reduction in the germ count of
In addition to the experiments on mice infected with tuberculosis, experiments were carried out analogously on guinea pigs. In this case, the germ count was determined on the lung homogenate. The animals were infected subcutaneously intrainguinally with Mycobacterium tuberculosis H37Rv and were subjected to therapy once daily from the 14th day after infection over a period of 3 weeks, that is to say 5 times per week. The germ counts were determined in the 4th, 5th and 6th week after infection.

[4] = system: M. bovis Ravenal; test: microbe, parasite or virus in culture; format: cell-based; details: Mycobacterium tuberculosis variant bovis, read-out: MIC, M. bovis Ravenal
[5] = system: "Atypical mycobacteria" Runyon Grouping 4; test: Anti-mycobacterial spectrum of action (MIC), atypical mycobacteria Runyon grouping 4; format: cell-based; details: modified Difco-Tb-Bouillon
[6] = system: "Atypical mycobacteria" Runyon Grouping 2; test: Anti-mycobacterial spectrum of action (MIC), atypical mycobacteria Runyon grouping 2; format: cell-based; details: modified Difco-Tb-Bouillon
[7] = system: Mycobacterium tuberculosis H37Rv; test: MIC in modified Difco-Tb-Bouillon, normally sensitive strain; format: cell-based
[8] = system: "Atypical mycobacteria" Runyon Grouping 1; test: Anti-mycobacterial spectrum of action (MIC), atypical mycobacteria Runyon grouping 1; format: cell-based; details: modified Difco-Tb-Bouillon
[9] = system: "Atypical mycobacteria" Runyon Grouping 3; test: Anti-mycobacterial spectrum of action (MIC), atypical mycobacteria Runyon grouping 3; format: cell-based; details: modified Difco-Tb-Bouillon
[10] = Table 2, read-out: MIC, normally sensitive H37Rv (Table 2)
[11] = Table 3, read-out: MIC, M. tuberculosis H37Rv (Table 3)

Question: For `O=C(NCc1ccncc1)c1cc([N+](=O)[O-])cc([N+](=O)[O-])c1` [Example 13], which “In vivo action, index of reduction in Tb germs, Tb-mice, orally” value [1] is on record?
Answer: 3 (reduction in the germ count of >70-90% = good action)

Question: And the “In vivo action, index of reduction in Tb germs, Tb-mice, subcutaneously” value [1]?
Answer: 2 (reduction in the germ count of >40-70% = distinct action)

Question: And the MIC [2]?
Answer: 32 µg/mL (≈ 106 µM)

Question: What about the “In vivo action, index of reduction in Tb germs, Tb-guinea pigs, orally” value [3] of the same compound?
Answer: 4 (reduction in the germ count of >90% = very good action)

Question: What does the source list for `O=C(NCc1cnc2ccccc2c1)c1cc([N+](=O)[O-])cc([N+](=O)[O-])c1` [Example 9]?
Answer: MIC [4]: 0.4 µg/mL (≈ 1.14 µM); In vivo action, index of reduction in Tb germs, Tb-mice, orally [1]: 1 (reduction in the germ count of >20-40% = trace action); In vivo action, index of reduction in Tb germs, Tb-mice, subcutaneously [1]: 1 (reduction in the germ count of >20-40% = trace action); MIC [5]: 1.6 µg/mL (≈ 4.54 µM); MIC [2]: 2 µg/mL (≈ 5.68 µM); In vivo action, index of reduction in Tb germs, Tb-guinea pigs, orally [3]: 4 (reduction in the germ count of >90% = very good action); MIC [6]: 3.1 µg/mL (≈ 8.8 µM); MIC [7, 10]: 0.2 µg/mL (≈ 0.568 µM); MIC [7, 11]: 0.2 µg/mL (≈ 0.568 µM); MIC [8]: 3.1 µg/mL (≈ 8.8 µM); MIC [9]: > 100 µg/mL

Question: Which MIC [4] does the source give for `CC(NC(=O)c1cc([N+](=O)[O-])cc([N+](=O)[O-])c1)c1ccccn1` (stereo not shown) [Example 29] here?
Answer: 3.1 µg/mL (≈ 9.8 µM)

Question: What about the “In vivo action, index of reduction in Tb germs, Tb-mice, orally” value [1] of the same compound?
Answer: 4 (reduction in the germ count of >90% = very good action)

Question: What about the “In vivo action, index of reduction in Tb germs, Tb-mice, subcutaneously” value [1] of the same compound?
Answer: 3 (reduction in the germ count of >70-90% = good action)

Question: What about the MIC [5] of the same compound?
Answer: 3.1 µg/mL (≈ 9.8 µM)

Question: And the MIC [2]?
Answer: 2 µg/mL (≈ 6.32 µM)

Question: What about the MIC [6] of the same compound?
Answer: 3.1 µg/mL (≈ 9.8 µM)

Question: And the MIC [7, 10]?
Answer: 1.6 µg/mL (≈ 5.06 µM)

Question: And the MIC [7, 11]?
Answer: 1.6 µg/mL (≈ 5.06 µM)

Question: And the MIC [8]?
Answer: 3.1 µg/mL (≈ 9.8 µM)

Question: And the MIC [9]?
Answer: 100 µg/mL (≈ 316 µM)

Question: For `O=C(NCc1cccnc1)c1cc([N+](=O)[O-])cc([N+](=O)[O-])c1` [Example 12], which “In vivo action, index of reduction in Tb germs, Tb-mice, orally” value [1] is on record?
Answer: 2 (reduction in the germ count of >40-70% = distinct action)

Question: And the “In vivo action, index of reduction in Tb germs, Tb-mice, subcutaneously” value [1]?
Answer: 2 (reduction in the germ count of >40-70% = distinct action)

Question: What about the MIC [2] of the same compound?
Answer: 32 µg/mL (≈ 106 µM)

Question: And the “In vivo action, index of reduction in Tb germs, Tb-guinea pigs, orally” value [3]?
Answer: 3 (reduction in the germ count of >70-90% = good action)

Question: Which MIC [4] does the source give for `Cc1cccc(CNC(=O)c2cc([N+](=O)[O-])cc([N+](=O)[O-])c2)n1` [Example 14] here?
Answer: 3.1 µg/mL (≈ 9.8 µM)

Question: What about the MIC [5] of the same compound?
Answer: 12.5 µg/mL (≈ 39.5 µM)

Question: And the MIC [6]?
Answer: 12.5 µg/mL (≈ 39.5 µM)

Question: And the MIC [7, 10]?
Answer: 3.1 µg/mL (≈ 9.8 µM)

Question: And the MIC [7, 11]?
Answer: 3.1 µg/mL (≈ 9.8 µM)

Question: What about the MIC [8] of the same compound?
Answer: 6.2 µg/mL (≈ 19.6 µM)

Question: What about the MIC [9] of the same compound?
Answer: 25 µg/mL (≈ 79 µM)

Question: With `O=C(NCc1ccc2ccccc2n1)c1cc([N+](=O)[O-])cc([N+](=O)[O-])c1` [Example 15] as the compound, how does the MIC [4] read?
Answer: 0.8 µg/mL (≈ 2.27 µM)

Question: What about the “In vivo action, index of reduction in Tb germs, Tb-mice, orally” value [1] of the same compound?
Answer: 3 (reduction in the germ count of >70-90% = good action)

Question: What about the “In vivo action, index of reduction in Tb germs, Tb-mice, subcutaneously” value [1] of the same compound?
Answer: 2 (reduction in the germ count of >40-70% = distinct action)

Question: And the MIC [5]?
Answer: 1.6 µg/mL (≈ 4.54 µM)

Question: What about the MIC [2] of the same compound?
Answer: 1 µg/mL (≈ 2.84 µM)

Question: And the “In vivo action, index of reduction in Tb germs, Tb-guinea pigs, orally” value [3]?
Answer: 3 (reduction in the germ count of >70-90% = good action)

Question: And the MIC [6]?
Answer: 6.2 µg/mL (≈ 17.6 µM)

Question: And the MIC [7, 10]?
Answer: 0.2 µg/mL (≈ 0.568 µM)

Question: What about the MIC [7, 11] of the same compound?
Answer: 0.2 µg/mL (≈ 0.568 µM)

Question: What about the MIC [8] of the same compound?
Answer: 1.6 µg/mL (≈ 4.54 µM)

Question: What about the MIC [9] of the same compound?
Answer: 1.6 µg/mL (≈ 4.54 µM)

Question: Which MIC [4] does the source give for `O=C(NCc1ccccn1)c1cc([N+](=O)[O-])cc([N+](=O)[O-])c1` [Example 1, N-(pyrid-2-ylmethyl)-3,5-dinitrobenzoic acid amide] here?
Answer: 3.1 µg/mL (≈ 10.3 µM)

Question: And the “In vivo action, index of reduction in Tb germs, Tb-mice, orally” value [1]?
Answer: 4 (reduction in the germ count of >90% = very good action)

Question: And the “In vivo action, index of reduction in Tb germs, Tb-mice, subcutaneously” value [1]?
Answer: 3 (reduction in the germ count of >70-90% = good action)

Question: And the MIC [5]?
Answer: 6.2 µg/mL (≈ 20.5 µM)

Question: What about the MIC [2] of the same compound?
Answer: 1 µg/mL (≈ 3.31 µM)

Question: And the “In vivo action, index of reduction in Tb germs, Tb-guinea pigs, orally” value [3]?
Answer: 4 (reduction in the germ count of >90% = very good action)

Question: And the MIC [6]?
Answer: 6.2 µg/mL (≈ 20.5 µM)

Question: And the MIC [7, 10]?
Answer: 1.6 µg/mL (≈ 5.29 µM)

Question: What about the MIC [7, 11] of the same compound?
Answer: 1.6 µg/mL (≈ 5.29 µM)

Question: And the MIC [8]?
Answer: 6.2 µg/mL (≈ 20.5 µM)

Question: And the MIC [9]?
Answer: 50 µg/mL (≈ 165 µM)

Question: For `O=C(NCC1CCC=CO1)c1cc([N+](=O)[O-])cc([N+](=O)[O-])c1` (stereo not shown) [Example 22], which MIC [4] is on record?
Answer: 3.1 µg/mL (≈ 10.1 µM)

Question: What about the MIC [5] of the same compound?
Answer: 1.6 µg/mL (≈ 5.21 µM)

Question: And the MIC [6]?
Answer: 1.6 µg/mL (≈ 5.21 µM)

Question: And the MIC [7, 10]?
Answer: 0.4 µg/mL (≈ 1.3 µM)

Question: What about the MIC [7, 11] of the same compound?
Answer: 0.4 µg/mL (≈ 1.3 µM)

Question: What about the MIC [8] of the same compound?
Answer: 1.6 µg/mL (≈ 5.21 µM)

Question: What about the MIC [9] of the same compound?
Answer: > 100 µg/mL

Question: For `O=C(NCCc1ccccn1)c1cc([N+](=O)[O-])cc([N+](=O)[O-])c1` [Example 10], which “In vivo action, index of reduction in Tb germs, Tb-mice, orally” value [1] is on record?
Answer: 2 (reduction in the germ count of >40-70% = distinct action)

Question: What about the “In vivo action, index of reduction in Tb germs, Tb-mice, subcutaneously” value [1] of the same compound?
Answer: 2 (reduction in the germ count of >40-70% = distinct action)

Question: And the MIC [2]?
Answer: 1 µg/mL (≈ 3.16 µM)

Question: What about the “In vivo action, index of reduction in Tb germs, Tb-guinea pigs, orally” value [3] of the same compound?
Answer: 3 (reduction in the germ count of >70-90% = good action)

Question: `O=C(NCC1CCCO1)c1cc([N+](=O)[O-])cc([N+](=O)[O-])c1` (stereo not shown) [Example 20] was tested. Which MIC [4] did it give?
Answer: 3.1 µg/mL (≈ 10.5 µM)

Question: What about the MIC [5] of the same compound?
Answer: 6.2 µg/mL (≈ 21 µM)

Question: What about the MIC [6] of the same compound?
Answer: 6.2 µg/mL (≈ 21 µM)

Question: What about the MIC [7, 10] of the same compound?
Answer: 1.6 µg/mL (≈ 5.42 µM)

Question: And the MIC [7, 11]?
Answer: 1.6 µg/mL (≈ 5.42 µM)

Question: And the MIC [8]?
Answer: 6.2 µg/mL (≈ 21 µM)

Question: What about the MIC [9] of the same compound?
Answer: 100 µg/mL (≈ 339 µM)
